Measurements as given in patent US12121523B2, “Method of treatment of attention deficit/hyperactivity disorder (ADHD)” (Supernus Pharmaceuticals, Inc., priority 2008, dated 2024).

What was measured:
5-HT3 (h) = 5-HT3 (h) (Homo sapiens, UniProt P46098); settings: 10 μM viloxazine; [3H]BRL 43694 0.5 nM; 120 min/22° C.
From the text: (§1) Briefly, recombinant 5-HT1B OR 5-HT7 receptors were expressed in a CHO cell line. The receptors were then saturated with a tritiated receptor-specific ligand at concentrations known to be saturating.

5-HT5A (h) = 5-HT5A (h) (Homo sapiens, UniProt P47898); settings: 10 μM viloxazine; [3H]LSD 1 nM; 60 min/37° C.
Sequence of 5-HT5A (h) (P47898 whole entry): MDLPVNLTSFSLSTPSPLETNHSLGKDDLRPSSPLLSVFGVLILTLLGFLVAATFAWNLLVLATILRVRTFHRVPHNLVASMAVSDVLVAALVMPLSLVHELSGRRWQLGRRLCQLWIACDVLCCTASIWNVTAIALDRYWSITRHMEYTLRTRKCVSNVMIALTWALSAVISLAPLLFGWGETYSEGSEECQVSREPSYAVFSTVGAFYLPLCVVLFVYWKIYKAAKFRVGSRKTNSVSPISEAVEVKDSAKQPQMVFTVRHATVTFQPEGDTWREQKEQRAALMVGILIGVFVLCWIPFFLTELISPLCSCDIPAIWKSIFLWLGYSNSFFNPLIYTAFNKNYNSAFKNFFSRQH
From the text: as §1

5-HT1D = 5-HT1D (Rattus norvegicus, UniProt P28565); settings: 10 μM viloxazine; [3H]serotonin 1 nM; 60 min/22° C.
Sequence of 5-HT1D (P28565 whole entry): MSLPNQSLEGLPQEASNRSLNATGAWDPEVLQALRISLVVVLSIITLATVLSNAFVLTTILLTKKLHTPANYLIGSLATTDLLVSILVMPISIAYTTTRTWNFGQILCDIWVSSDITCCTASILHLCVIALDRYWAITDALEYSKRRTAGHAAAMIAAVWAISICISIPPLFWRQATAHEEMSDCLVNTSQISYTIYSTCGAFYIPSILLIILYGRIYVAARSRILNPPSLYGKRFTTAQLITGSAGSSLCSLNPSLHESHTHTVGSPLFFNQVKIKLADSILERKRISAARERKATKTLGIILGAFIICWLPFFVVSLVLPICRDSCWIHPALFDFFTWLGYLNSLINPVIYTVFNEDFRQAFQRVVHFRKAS
From the text: as §1

5-HT4e (h) = 5-HT4e (h) (Homo sapiens, UniProt Q13639); settings: 10 μM viloxazine; [3H]GR 113808 0.3 nM; 60 min/37° C.
Sequence of 5-HT4e (h) (Q13639 1-378 isoform Q13639-5): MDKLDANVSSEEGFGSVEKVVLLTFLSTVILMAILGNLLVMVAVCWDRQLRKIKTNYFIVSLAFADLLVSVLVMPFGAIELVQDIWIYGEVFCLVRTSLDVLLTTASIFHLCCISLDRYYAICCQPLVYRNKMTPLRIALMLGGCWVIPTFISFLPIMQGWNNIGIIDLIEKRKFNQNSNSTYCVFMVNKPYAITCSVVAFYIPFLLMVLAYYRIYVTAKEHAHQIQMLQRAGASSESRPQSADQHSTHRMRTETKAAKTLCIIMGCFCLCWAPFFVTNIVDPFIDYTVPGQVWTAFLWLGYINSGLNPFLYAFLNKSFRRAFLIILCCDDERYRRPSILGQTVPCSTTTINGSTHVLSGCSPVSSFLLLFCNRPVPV
From the text: as §1

5-HT6 (h) = 5-HT6 (h) (Homo sapiens, UniProt P50406); settings: 10 μM viloxazine; [3H]LSD 2 nM; 120 min/37° C.
Sequence of 5-HT6 (h) (P50406 whole entry): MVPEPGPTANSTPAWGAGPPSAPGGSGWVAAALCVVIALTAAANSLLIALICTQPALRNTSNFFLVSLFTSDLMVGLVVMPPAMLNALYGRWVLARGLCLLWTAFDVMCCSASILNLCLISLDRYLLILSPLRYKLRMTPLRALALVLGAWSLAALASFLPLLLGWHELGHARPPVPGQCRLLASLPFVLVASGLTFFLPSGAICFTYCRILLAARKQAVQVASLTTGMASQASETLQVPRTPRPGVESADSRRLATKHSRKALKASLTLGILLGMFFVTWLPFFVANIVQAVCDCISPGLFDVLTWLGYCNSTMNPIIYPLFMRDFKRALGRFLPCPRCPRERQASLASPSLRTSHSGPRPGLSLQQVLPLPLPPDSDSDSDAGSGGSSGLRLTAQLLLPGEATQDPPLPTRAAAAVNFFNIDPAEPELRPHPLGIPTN
From the text: as §1

[1] = molecular target: noradrenergic reuptake transporters (Homo sapiens, UniProt P23975); settings: Tatsumi et al 1997; quantity type not given; cited from earlier work
Sequence of noradrenergic reuptake transporters (P23975 whole entry): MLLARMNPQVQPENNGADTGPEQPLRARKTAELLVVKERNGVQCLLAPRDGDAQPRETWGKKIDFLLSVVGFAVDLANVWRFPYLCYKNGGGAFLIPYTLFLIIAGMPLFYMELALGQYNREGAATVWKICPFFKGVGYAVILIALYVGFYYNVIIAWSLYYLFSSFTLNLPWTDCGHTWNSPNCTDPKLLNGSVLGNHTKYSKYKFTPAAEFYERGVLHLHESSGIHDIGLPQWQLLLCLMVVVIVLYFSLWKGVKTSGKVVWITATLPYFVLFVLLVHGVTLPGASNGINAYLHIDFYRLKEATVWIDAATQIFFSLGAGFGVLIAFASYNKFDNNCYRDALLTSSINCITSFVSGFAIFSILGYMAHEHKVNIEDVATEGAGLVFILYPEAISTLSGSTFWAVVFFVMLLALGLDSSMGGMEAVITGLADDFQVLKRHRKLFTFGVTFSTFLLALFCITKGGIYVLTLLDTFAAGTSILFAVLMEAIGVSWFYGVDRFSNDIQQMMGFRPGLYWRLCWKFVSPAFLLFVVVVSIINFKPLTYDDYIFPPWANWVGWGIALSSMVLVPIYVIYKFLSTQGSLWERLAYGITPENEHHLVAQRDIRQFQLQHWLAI

5-HT1B (h) = 5-HT1B (h) (Homo sapiens, UniProt P28222)
Sequence of 5-HT1B (h) (P28222 whole entry): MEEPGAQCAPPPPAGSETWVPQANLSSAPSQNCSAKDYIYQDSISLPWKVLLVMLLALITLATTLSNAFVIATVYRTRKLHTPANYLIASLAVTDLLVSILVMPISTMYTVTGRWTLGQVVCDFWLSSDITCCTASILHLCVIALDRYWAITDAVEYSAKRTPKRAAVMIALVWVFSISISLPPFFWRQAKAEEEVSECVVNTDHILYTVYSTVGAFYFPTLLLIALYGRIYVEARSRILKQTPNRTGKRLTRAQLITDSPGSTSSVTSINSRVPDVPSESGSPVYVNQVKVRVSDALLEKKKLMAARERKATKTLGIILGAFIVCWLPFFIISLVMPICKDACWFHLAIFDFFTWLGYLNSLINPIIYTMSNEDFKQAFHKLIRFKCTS
Experimental: The apparent dissociation constants for antagonists Kb were calculated using the modified Cheng Prusoff equation.

Sequence of 5-HT3 (h) (P46098 24-478): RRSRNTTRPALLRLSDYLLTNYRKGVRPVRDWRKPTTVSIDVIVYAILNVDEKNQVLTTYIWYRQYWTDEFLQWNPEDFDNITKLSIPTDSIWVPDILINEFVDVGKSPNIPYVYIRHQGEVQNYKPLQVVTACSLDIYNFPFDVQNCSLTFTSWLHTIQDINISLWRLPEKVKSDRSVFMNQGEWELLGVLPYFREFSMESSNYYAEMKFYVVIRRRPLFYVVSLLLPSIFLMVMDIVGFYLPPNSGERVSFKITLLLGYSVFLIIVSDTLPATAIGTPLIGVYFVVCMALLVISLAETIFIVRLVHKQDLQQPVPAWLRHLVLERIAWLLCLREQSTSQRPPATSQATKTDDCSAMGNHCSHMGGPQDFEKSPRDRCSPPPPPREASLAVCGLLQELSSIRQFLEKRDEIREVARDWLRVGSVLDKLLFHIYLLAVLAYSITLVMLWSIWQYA

For Viloxazine, the “% Inhib.” value (5-HT3 (h)) was 18%, the “% Inhib.” value (5-HT5A (h)) was 15% and the “% Inhib.” value (5-HT1D) was 18%. The “% Inhib.” value (5-HT4e (h)) was 16%, the “% Inhib.” value (5-HT6 (h)) was 6% and the “inhibition of noradrenergic reuptake transporters” value [1] was 155 nM. For the same substance, the “antagonist activity (in words)” value (5-HT1B (h)) was “specific antagonist activity”.
